This is an account of results in patent US20160354303A1, “Method, Compositions, And Kit For Modulating The Appearance Of Volume On Keratin Surfaces” (ELC MANAGEMENT LLC, priority 2014, published 2016).

This assay relates to Human subcutaneous preadipocytes. Nature of the assay: Adipocyte differentiation assay: inhibition of adipogenesis, glycerol liberated from triglyceride (Zen-Bio). Format: cell-based. The note with it: for adipogenesis: inhibition in presence of 1 uM Rosiglitazone, OD at 540 nm, glycerol liberated from triglyceride, FIGS. 2 and 3. The protocol: Conjugated linoleic acid and resveratrol were tested for their ability to promote the appearance of decreased volume. Cell culture, treatment, and differentiation assay was performed by Zen-Bio, RTF, NC. Human subcutaneous preadipocytes, lot number: were cultured in 96-well plates. The donor information is as follows: • Lot #: L061103 • […] • […] • B.M.I.: 25.2 Stimulation was treated in the presence of 0.1 uM Rosiglitazone Maleate. Inhibition was treated in the presence of 1.0 uM Rosiglitazone Maleate. Day 1: Plated cells and allowed cells to adhere. Day 2: Changed medium to Initiation medium containing the compounds or controls. Day 5: Changed medium to Adipocyte medium with the compounds. Day 8: Changed medium to Adipocyte medium with the compounds. Day 11: Changed medium to Adipocyte medium with the compounds. Day 13: Cells were washed with PBS and lysed with the lysis buffer. Reagent B was added to each well and the cells were incubated at 37° C. for 2 hours. Aliquots of the lysates were diluted with PBS, then Reagent A was added to each well. The optical density was read at 540 nm after 15 minutes. The reagent measures the amount of glycerol liberated from triglyceride. Data were analyzed using a one-way ANOVA and significant means were tested by Bonferroni multiple comparison test using Instat software. Cell culture, treatment, and differentiation assay was performed by Zen-Bio, RTF, NC. Human subcutaneous preadipocytes, lot number: were cultured in 96-well plates. The donor information is as follows: • Lot#: SL0029 • Gender: Female (all lots) […] ([…]) Human subcutaneous preadipocytes were cultured in 96-well plates. Day 1: Plated cells and allowed cells to adhere. Day 2: Changed medium to Differentiation medium containing the compounds or controls. (0.1 uM Rosi for stimulation or 1 uM Rosi for inhibition) Day 9: Changed medium to Adipocyte medium plus compounds. Day 12: Changed medium to Adipocyte medium plus compounds. Day 16: Cells were washed with PBS and lysed with the lysis buffer. […] The optical density was read at 540 nm after 15 minutes. […]

Take `Oc1ccc(C=Cc2cc(O)cc(O)c2)cc1` [resveratrol]: the adipogenesis entry is given as “effective in reducing adipogenesis”. The human adipocyte generation result (after treatment with resveratrol, FIG. 2 legend) was “decrease in human adipocyte generation”.
As to conjugated linoleic acid, the adipogenesis entry is listed as “effective in reducing adipogenesis”.
